Experimental data: ChEMBL document CHEMBL1131763, “Thiazole-derived potent, highly bioavailable short duration growth hormone secretagogues” (Bioorg Med Chem Lett, 1999)
Active and inactive are the calls of the source. The calls are words filed in the database; no cut-off is given here.

Experiments:
Format in all cases: functional, organism-based
Canis familiaris [1] = experiment: In vivo growth hormone(GH) release in beagles after intravenously administered dose of 0.01 mg/kg; 1/1; set-up: dose 0.01 mg/kg; conditions: Canis lupus familiaris
Canis familiaris [2] = experiment: In vivo growth hormone(GH) release in beagles after orally administered dose of 0.25 mg/kg; 6/8; set-up: dose 0.25 mg/kg; conditions: Canis lupus familiaris
Canis familiaris [3] = experiment: In vivo growth hormone(GH) release in beagles after orally administered dose of 0.5 mg/kg;8/8; set-up: dose 0.5 mg/kg; conditions: Canis lupus familiaris
Rattus norvegicus = species on record: Rattus norvegicus; experiment: Concentration required for determining half-maximal release of growth hormone(GH) in the rat pituitary cell assay; conditions: Pituitary gland cell
Canis familiaris [4] = experiment: In vivo growth hormone(GH) release in beagles after intravenous administration; NA- Not active; conditions: Canis lupus familiaris

SMILES | EC50 (Rattus norvegicus) [nM] | further results
CCOC(=O)[C@@]1(Cc2ccccc2)CCCN(C(=O)[C@@H](Cc2c[nH]c3ccccc23)NC(=O)C(C)(C)N)C1 | 1.6 | Response (Canis familiaris [1]): inactive; Response (Canis familiaris [2]): Partially active; Response (Canis familiaris [3]): Active
CCOC(=O)[C@]1(Cc2ccccn2)CCCN(C(=O)[C@@H](Cc2c[nH]c3ccccc23)NC(=O)C(C)(C)N)C1 | 0.2 | 
CCOC(=O)C1(Cc2ccccn2)CCCN(C(=O)[C@@H](Cc2c[nH]c3ccccc23)NC(=O)C(C)(C)N)C1 (stereo partly drawn) | 0.5 | 
CCOC(=O)[C@]1(Cc2cscn2)CCCN(C(=O)[C@@H](Cc2c[nH]c3ccccc23)NC(=O)C(C)(C)N)C1 | 0.5 | 
CCOC(=O)[C@@]1(Cc2cscn2)CCCN(C(=O)[C@@H](Cc2c[nH]c3ccccc23)NC(=O)C(C)(C)N)C1 | 15 | 
CCOC(=O)C1(Cc2cncs2)CCCN(C(=O)[C@@H](Cc2c[nH]c3ccccc23)NC(=O)C(C)(C)N)C1 (stereo partly drawn) | 6.1 | Response (Canis familiaris [4]): inactive
CCOC(=O)C1(Cc2cscn2)CCCN(C(=O)[C@@H](Cc2c[nH]c3ccccc23)NC(=O)C(C)(C)N)C1 (stereo partly drawn) | 1 | 
CCOC(=O)[C@@]1(Cc2ccccn2)CCCN(C(=O)[C@@H](Cc2c[nH]c3ccccc23)NC(=O)C(C)(C)N)C1 | 3 | 
CCOC(=O)C1(Cc2ccncc2)CCCN(C(=O)[C@@H](Cc2c[nH]c3ccccc23)NC(=O)C(C)(C)N)C1 (stereo partly drawn) | 4.4 | 
CCOC(=O)C1(Cc2nccs2)CCCN(C(=O)[C@@H](Cc2c[nH]c3ccccc23)NC(=O)C(C)(C)N)C1 (stereo partly drawn) | 4.2 | 
CCOC(=O)C1(Cc2cccnc2)CCCN(C(=O)[C@@H](Cc2c[nH]c3ccccc23)NC(=O)C(C)(C)N)C1 (stereo partly drawn) | 2.2 | 
CC(C)(N)C(=O)N[C@H](Cc1c[nH]c2ccccc12)C(=O)N1CCC[C@](Cc2ccccn2)(C(=O)O)C1 | 570 | 
CC(C)(N)C(=O)N[C@H](Cc1c[nH]c2ccccc12)C(=O)N1CCC[C@](Cc2ccccc2)(C(=O)O)C1 | 190 | 
CC(C)(N)C(=O)N[C@H](Cc1c[nH]c2ccccc12)C(=O)N1CCC[C@](Cc2cscn2)(C(=O)O)C1 | > 500 | 
